# Source: US8022225B2, “Triazole derivative” (Taisho Pharmaceutical Co., Ltd, priority 2004, dated 2011)
# Legend:
# human Edg-1(S1P1) [1] = target: T1, human Edg-1(S1P1) (Homo sapiens, UniProt P21453); assay: Membrane system binding test: inhibition of [33P]-S1P binding to the membrane fraction of Edg-1(S1P1) gene transferred HEK-293 cells; conditions: [33P]-S1P 0.1 nM
# T1 construct: expressed in transfected cells; host or cells: HEK-293
# Summary of the method: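 Membranes from HEK-293 cells transfected with Edg-1(S1P1) incubated 1 h at 30 °C with 0.1 nM [^33P]-S1P and compound at 10^−5 M (0.1% DMSO), pH 7.4 buffer with fatty acid-free BSA. Filter-bound radioactivity counted; inhibition rate calculated against no-compound binding, with untransfected-cell background subtracted.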
# human Edg-1(S1P1) [2] = target: T1, human Edg-1(S1P1); assay: Cell system binding test: inhibition of [3H]-S1P binding to Edg-1(S1P1) gene transferred HEK-293 cells; conditions: [3H]-S1P 10 nM
# [3] = 10 μM compound, membrane fraction of Edg-1(S1P1) gene transferred HEK-293 cells, read-out: Membrane system binding test % inhibition (10 μM)
# [4] = 10 μM compound, read-out: Cell system binding test % inhibition (10 μM)
# [5] = 10 μM compound, membrane fraction of Edg-1(S1P1) gene transferred HEK-293 cells
# [6] = test compound 10^-5 M, 1 hour at 30° C., HEK-293 membrane fraction, read-out: Edg-1(S1P1) binding inhibition rate (membrane system binding test)
# [7] = test compound 10^-5 M, 1 hour, read-out: Edg-1(S1P1) binding inhibition rate (cell system binding test)
# T1 sequence (P21453 whole entry): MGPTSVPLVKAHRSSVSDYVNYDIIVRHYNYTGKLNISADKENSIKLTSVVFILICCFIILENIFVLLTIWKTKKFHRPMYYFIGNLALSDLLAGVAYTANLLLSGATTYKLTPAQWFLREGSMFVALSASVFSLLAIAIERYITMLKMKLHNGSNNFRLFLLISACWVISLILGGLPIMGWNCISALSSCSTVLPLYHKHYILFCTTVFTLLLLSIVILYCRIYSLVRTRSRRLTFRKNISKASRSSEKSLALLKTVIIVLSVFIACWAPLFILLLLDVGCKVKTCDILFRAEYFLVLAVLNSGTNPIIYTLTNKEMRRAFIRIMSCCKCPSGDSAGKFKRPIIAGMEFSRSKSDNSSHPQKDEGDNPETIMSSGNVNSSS
Compound,inhibition at 10 µM (human Edg-1(S1P1) [1]; [6]),inhibition at 10 µM (human Edg-1(S1P1) [2]; [7]),other results
CCOc1nnc([C@@H](C)NS(=O)(=O)c2ccc(C)cc2)n1CC [Compound 429],–,–,inhibition at 10 µM (human Edg-1(S1P1) [1]; [3]): 74.2%; inhibition at 10 µM (human Edg-1(S1P1) [2]; [4]): 95.1%
CCOc1nnc([C@@H](C)NS(=O)(=O)c2cccc(Cl)c2C)n1CC [Compound 430],–,–,inhibition at 10 µM (human Edg-1(S1P1) [1]; [3]): 89.2%; inhibition at 10 µM (human Edg-1(S1P1) [2]; [4]): 97.9%
CCOc1nnc([C@@H](C)NS(=O)(=O)c2ccc3nsnc3c2)n1CC [Compound 431],–,–,inhibition at 10 µM (human Edg-1(S1P1) [1]; [3]): 94.6%; inhibition at 10 µM (human Edg-1(S1P1) [2]; [4]): 98%
CCOc1nnc([C@@H](C)NS(=O)(=O)c2ccc(C(F)(F)F)cc2)n1CC [Compound 432],–,–,inhibition at 10 µM (human Edg-1(S1P1) [1]; [3]): 82.9%; inhibition at 10 µM (human Edg-1(S1P1) [2]; [4]): 92.2%
CCOc1nnc([C@@H](C)NS(=O)(=O)c2cc(F)cc(F)c2)n1CC [Compound 433],–,–,inhibition at 10 µM (human Edg-1(S1P1) [1]; [3]): 70.2%; inhibition at 10 µM (human Edg-1(S1P1) [2]; [4]): 93.8%
CCOc1nnc([C@@H](C)NS(=O)(=O)c2cc(Cl)c(Cl)s2)n1CC [Compound 434],–,–,inhibition at 10 µM (human Edg-1(S1P1) [1]; [3]): 90.5%; inhibition at 10 µM (human Edg-1(S1P1) [2]; [4]): 95.6%
CCOc1nnc([C@@H](C)NS(=O)(=O)c2ccc(I)cc2)n1CC [Compound 435],–,–,inhibition at 10 µM (human Edg-1(S1P1) [1]; [3]): 86.4%; inhibition at 10 µM (human Edg-1(S1P1) [2]; [4]): 93.7%
CCOc1nnc([C@@H](C)NS(=O)(=O)c2ccc(F)cc2)n1CC [Compound 436],–,–,inhibition at 10 µM (human Edg-1(S1P1) [1]; [3]): 49%; inhibition at 10 µM (human Edg-1(S1P1) [2]; [4]): 94.5%
CCOc1nnc([C@@H](C)NS(=O)(=O)c2ccc(Br)c(C(F)(F)F)c2)n1CC [Compound 437],–,–,inhibition at 10 µM (human Edg-1(S1P1) [1]; [3]): 93.9%; inhibition at 10 µM (human Edg-1(S1P1) [2]; [4]): 101%
CCn1c(OC)nnc1[C@@H](Cc1ccccc1Cl)NS(=O)(=O)c1ccc(Cl)cc1 [Compound 439],–,–,inhibition at 10 µM (human Edg-1(S1P1) [1]; [3]): 100%; inhibition at 10 µM (human Edg-1(S1P1) [2]; [4]): 95%
CCn1c(OC)nnc1[C@@H](Cc1cccc(Cl)c1)NS(=O)(=O)c1ccc(Cl)cc1 [Compound 440],–,–,inhibition at 10 µM (human Edg-1(S1P1) [1]; [3]): 102%; inhibition at 10 µM (human Edg-1(S1P1) [2]; [4]): 95.1%
CCn1c(OC)nnc1[C@@H](C)NS(=O)(=O)c1ccc2[nH]c(=O)oc2c1 [Compound 443],–,–,inhibition at 10 µM (human Edg-1(S1P1) [1]; [3]): 43%; inhibition at 10 µM (human Edg-1(S1P1) [2]; [4]): 31.3%
CCn1c(OC)nnc1[C@@H](C)NS(=O)(=O)c1ccc(NC(C)=O)cc1 [Compound 444],–,–,inhibition at 10 µM (human Edg-1(S1P1) [1]; [3]): 60.9%; inhibition at 10 µM (human Edg-1(S1P1) [2]; [4]): 18.2%
CCOc1nnc([C@@H](C)NS(=O)(=O)c2cccc(Cl)c2)n1CC [Compound 445],–,–,inhibition at 10 µM (human Edg-1(S1P1) [1]; [3]): 81.6%; inhibition at 10 µM (human Edg-1(S1P1) [2]; [4]): 93%
CCOc1nnc([C@@H](C)NS(=O)(=O)c2ccc(CC)cc2)n1CC [Compound 446],–,–,inhibition at 10 µM (human Edg-1(S1P1) [1]; [3]): 72.5%; inhibition at 10 µM (human Edg-1(S1P1) [2]; [4]): 91.4%
CCOc1nnc([C@@H](C)NS(=O)(=O)c2cccc(OC)c2)n1CC [Compound 447],–,–,Membrane system binding test % inhibition (10 μM) (human Edg-1(S1P1) [1]; [5]): 72.2%; Cell system binding test % inhibition (10 μM) (human Edg-1(S1P1) [2]; 10 μM compound): 89.2%
CCn1c(OC)nnc1[C@@H](C)NS(=O)(=O)c1ccc(Br)c(Br)c1 [Compound 448],–,–,Membrane system binding test % inhibition (10 μM) (human Edg-1(S1P1) [1]; [5]): 99.6%; Cell system binding test % inhibition (10 μM) (human Edg-1(S1P1) [2]; 10 μM compound): 89.7%
CCn1c(OC)nnc1[C@@H](C)NS(=O)(=O)c1cc(F)c(Br)cc1F [Compound 449],–,–,Membrane system binding test % inhibition (10 μM) (human Edg-1(S1P1) [1]; [5]): 65.9%; Cell system binding test % inhibition (10 μM) (human Edg-1(S1P1) [2]; 10 μM compound): 91.6%
CCOc1nnc([C@@H](C)NS(=O)(=O)c2cc(F)c(F)c(F)c2)n1CC [Compound 450],–,–,inhibition at 10 µM (human Edg-1(S1P1) [1]; [3]): 93.8%; inhibition at 10 µM (human Edg-1(S1P1) [2]; [4]): 92.3%

Compound,inhibition at 10 µM (human Edg-1(S1P1) [1]; [6]),inhibition at 10 µM (human Edg-1(S1P1) [2]; [7]),other results
CCOc1nnc([C@@H](C)NS(=O)(=O)c2cc(F)c(Br)cc2F)n1CC [Compound 451],–,–,inhibition at 10 µM (human Edg-1(S1P1) [1]; [3]): 62.7%; inhibition at 10 µM (human Edg-1(S1P1) [2]; [4]): 94.2%
CCn1c(OC(C)C)nnc1[C@@H](C)NS(=O)(=O)c1ccc(Br)s1 [Compound 452],89.7%,91.8%,–
CCn1c(OC(C)C)nnc1[C@@H](C)NS(=O)(=O)c1cc(F)c(F)c(F)c1 [Compound 458],91.9%,86.5%,–
CCn1c(OC)nnc1[C@@H](COC)NS(=O)(=O)c1ccc(Cl)cc1 [Compound 459],68.5%,89.9%,–
CCn1c(OC(C)C)nnc1[C@@H](C)NS(=O)(=O)c1ccc2ccccc2c1 [Compound 464],98.3%,99.6%,–
CCn1c(OC(C)C)nnc1[C@@H](C)NS(=O)(=O)c1cccc(OC(F)F)c1 [Compound 466],88.8%,99.3%,–
CCn1c(OC(C)C)nnc1[C@@H](C)NS(=O)(=O)c1cccc(C(F)(F)F)c1 [Compound 468],75.8%,96.9%,–
CCn1c(OC(C)C)nnc1[C@@H](C)NS(=O)(=O)c1cccc(OC(F)(F)F)c1 [Compound 469],83.9%,95.9%,–
CCn1c(OC(C)C)nnc1[C@@H](C)NS(=O)(=O)c1ccc(C(F)(F)F)cc1 [Compound 473],91.7%,95.1%,–
CCn1c(OC(C)C)nnc1[C@@H](C)NS(=O)(=O)c1cc(F)cc(F)c1 [Compound 474],79%,93%,–
CCn1c(OC(C)C)nnc1[C@@H](C)NS(=O)(=O)c1cc(Cl)c(Cl)s1 [Compound 475],86.4%,97.9%,–
CCn1c(OC(C)C)nnc1[C@@H](C)NS(=O)(=O)c1cc(F)c(Br)cc1F [Compound 482],72.3%,90.7%,–
CCn1c(OCC(F)(F)F)nnc1[C@@H](C)NS(=O)(=O)c1ccc(Br)s1 [Compound 484],63.2%,102%,–
CCn1c(OCC(F)(F)F)nnc1[C@@H](C)NS(=O)(=O)c1ccc(Cl)c(Cl)c1 [Compound 485],95.5%,103%,–
CCn1c(OCC(F)(F)F)nnc1[C@@H](C)NS(=O)(=O)c1ccc(Br)c(F)c1 [Compound 487],90.4%,99.6%,–
CCn1c(OCC(F)(F)F)nnc1[C@@H](C)NS(=O)(=O)c1ccc(F)c(Cl)c1 [Compound 488],91.4%,102%,–
CCn1c(OCC(F)(F)F)nnc1[C@@H](C)NS(=O)(=O)c1ccc(Br)c(C)c1 [Compound 489],98.4%,103%,–
CCn1c(OCC(F)(F)F)nnc1[C@@H](C)NS(=O)(=O)c1cc(F)c(F)c(F)c1 [Compound 490],88.9%,101%,–

# Second part, led by results:
inhibition at 10 µM (human Edg-1(S1P1) [1]; [6]),inhibition at 10 µM (human Edg-1(S1P1) [2]; [7]),Compound,other results
97.1%,89.4%,CCn1c(OC(C)C)nnc1[C@@H](C)NS(=O)(=O)c1ccc(Cl)c(Cl)c1 [Compound 453],–
92.6%,91.7%,CCn1c(OC(C)C)nnc1[C@@H](C)NS(=O)(=O)c1ccc(C)c(Cl)c1 [Compound 454],–
91.7%,93.2%,CCn1c(OC(C)C)nnc1[C@@H](C)NS(=O)(=O)c1ccc(Br)c(F)c1 [Compound 455],–
89%,87.4%,CCn1c(OC(C)C)nnc1[C@@H](C)NS(=O)(=O)c1ccc(F)c(Cl)c1 [Compound 456],–
101%,85.4%,CCn1c(OC(C)C)nnc1[C@@H](C)NS(=O)(=O)c1ccc(Br)c(C)c1 [Compound 457],–
76.3%,94.5%,CCn1c(OC(C)C)nnc1[C@@H](C)NS(=O)(=O)c1cccc(Br)c1 [Compound 460],–
89.5%,87.9%,CCn1c(OC(C)C)nnc1[C@@H](C)NS(=O)(=O)c1ccc(Br)cc1 [Compound 461],–
92.1%,83.5%,CCn1c(OC(C)C)nnc1[C@@H](C)NS(=O)(=O)c1ccc(C)c(C)c1 [Compound 462],–
97.2%,88.7%,CCn1c(OC(C)C)nnc1[C@@H](C)NS(=O)(=O)c1ccc(C)c(F)c1 [Compound 463],–
88%,97.9%,CCn1c(OC(C)C)nnc1[C@@H](C)NS(=O)(=O)c1ccc(F)c(F)c1 [Compound 465],–
98.6%,100%,CCn1c(OC(C)C)nnc1[C@@H](C)NS(=O)(=O)c1ccc(Br)c(Br)c1 [Compound 467],–
80.8%,91.6%,CCn1c(OC(C)C)nnc1[C@@H](C)NS(=O)(=O)c1cccc(C)c1 [Compound 470],–
91%,96.5%,CCn1c(OC(C)C)nnc1[C@@H](C)NS(=O)(=O)c1cccc(Cl)c1C [Compound 471],–
94.4%,102%,CCn1c(OC(C)C)nnc1[C@@H](C)NS(=O)(=O)c1ccc2nsnc2c1 [Compound 472],–
86.1%,100%,CCn1c(OC(C)C)nnc1[C@@H](C)NS(=O)(=O)c1ccc(I)cc1 [Compound 476],–
77.1%,92%,CCn1c(OC(C)C)nnc1[C@@H](C)NS(=O)(=O)c1ccc(F)cc1 [Compound 477],–
86%,104%,CCn1c(OC(C)C)nnc1[C@@H](C)NS(=O)(=O)c1ccc(Br)c(C(F)(F)F)c1 [Compound 478],–
83%,93.3%,CCn1c(OC(C)C)nnc1[C@@H](C)NS(=O)(=O)c1cccc(Cl)c1 [Compound 479],–
77.4%,93.1%,CCc1ccc(S(=O)(=O)N[C@H](C)c2nnc(OC(C)C)n2CC)cc1 [Compound 480],–
64.9%,96.3%,CCn1c(OC(C)C)nnc1[C@@H](C)NS(=O)(=O)c1cccc(OC)c1 [Compound 481],–
93.8%,99.5%,CCn1c(OCC(F)(F)F)nnc1[C@@H](C)NS(=O)(=O)c1ccc(C)c(Cl)c1 [Compound 486],–
